Laboratory results published in US5556996A, “Oxiranyls disubstituted with a phenyl group and a substituted chromanyl or tetrahydroquinolinyl group having retinoid like activity” (Allergan, priority 1994, dated 1996).

Tested on: ornithine decarboxylase (ODC)
Experiment: Inhibition of TPA induction of ornithine decarboxylase (ODC assay)
Type: biochemical
Details: TPA-induced ODC activity
Excerpt: The retinoic acid-like activity of these compounds is confirmed through the classic measure of retinoic acid activity involving the effects of retinoic acid on ornithine decarboxylase. The original work on the correlation between retinoic acid and decrease in cell proliferation was done by Verma & Boutwell, Cancer Research, 1977, 37,2196-2201. That reference discloses that ornithine decarboxylase (ODC) activity increased precedent to polyamine biosynthesis. It has been established elsewhere that increases in polyamine synthesis can be correlated or associated with cellular proliferation. Thus, if ODC activity could be inhibited, cell hyperproliferation could be modulated. Although all cases for ODC activity increases are unknown, it is known that 12-0-tetradecanoylphorbol-13-acetate (TPA) induces ODC activity. Retinoic acid inhibits this induction of ODC activity by TPA. […] Activity of exemplary compounds of the present invention in the above-described ODC assay is disclosed in Table 1 which provides IC80 data for the exemplary compounds. ("IC80 " is that concentration of the test compound which causes 80% inhibition in the ODC assay).

SMILES	IC80 conc (concentration of the test compound which causes 80% inhibition in the ODC assay) [nmols]
CCOC(=O)c1ccc([C@@H]2O[C@@]2(C)c2ccc3c(c2)C(C)(C)CC(C)(C)O3)cc1 (relative stereo) [Compound 1, Ethyl(±)-(E)-4-[2-methyl-2-(2,2,4,4-tetramethylchroman-6-yl)oxiran-1-yl]benzoate]	> 300
CC1(C)CC(C)(C)c2cc([C@]3(C)O[C@H]3c3ccc(C(=O)O)cc3)ccc2O1 (relative stereo) [Compound 2, (±)-(E)T4-[2-methyl-2-(2,2,4,4-tetramethylchroman-6-yl)oxiran-1-yl]benzoic acid]	73
